SMILES strings stand for the structures.

The test system of test [1] is Tyrosine-protein kinase ABL1 (Homo sapiens), P00519 [F317L]. In words: Inhibition of human non-phosphorylated ABL1 F317L mutant (S229 to K512 residues) expressed in mammalian expression system at 1 uM by Kinomescan method relative to control.
In test [2] the test system is Tyrosine-protein kinase ABL1 (Homo sapiens), P00519 [T315I]. In words: Inhibition of human non-phosphorylated ABL1 T315I mutant (S229 to K512 residues) expressed in mammalian expression system at 1 uM by Kinomescan method relative to control.
For test [3], the target named is Activin receptor type-1B (Homo sapiens) (UniProt P36896). Kind of test: Inhibition of wild-type human ACVR1B (S187 to I505 residues) expressed in bacterial expression system at 1 uM by Kinomescan method relative to control.
Test [4] has as its target Tyrosine-protein kinase receptor UFO (Homo sapiens) (UniProt P30530). In words: Inhibition of wild-type human partial length AXL (R497 to Y821 residues) expressed in bacterial expression system at 1 uM by Kinomescan method relative to control.
Test [5] concerns Serine/threonine-protein kinase B-raf (Homo sapiens), P15056 [V600E]. Kind of test: Inhibition of human partial length BRAF V600E mutant (S429 to E741 residues) expressed in mammalian expression system at 1 uM by Kinomescan method relative to control.
Test [6] addresses Calcium/calmodulin-dependent protein kinase kinase 1 (Homo sapiens) (UniProt Q8N5S9). In words: Inhibition of wild-type human partial length CAMKK1 (R65 to E414 residues) expressed in bacterial expression system at 1 uM by Kinomescan method relative to control.
In test [7] the target is Cyclin-dependent kinase-like 3 (Homo sapiens) (UniProt Q8IVW4). Kind of test: Inhibition of wild-type human partial length CDKL3 (M1 to D327 residues) expressed in bacterial expression system at 1 uM by Kinomescan method relative to control.
For test [8], the target named is Rhodopsin kinase GRK1 (Homo sapiens) (UniProt Q15835). In words: Inhibition of wild-type human full length GRK1 (M1 to S563 residues) expressed in mammalian expression system at 1 uM by Kinomescan method relative to control.
In test [9] the target is Tyrosine-protein kinase JAK1 (Homo sapiens) (UniProt P23458). In words: Inhibition of wild-type human partial length JAK1 JH1 catalytic domain (V856 to K1154 residues) expressed in bacterial expression system at 1 uM by Kinomescan method relative to control.
Test [10] concerns Mast/stem cell growth factor receptor Kit (Homo sapiens), P10721 [V559D]. In words: Inhibition of human partial length KIT V559D mutant (Y545 to D952 residues) expressed in bacterial expression system at 1 uM by Kinomescan method relative to control.
Test [11] has as its target Mitogen-activated protein kinase kinase kinase 3 (Homo sapiens) (UniProt Q99759). In words: Inhibition of wild-type human partial length MAP3K3 (E320 to Y626 residues) expressed in mammalian expression system at 1 uM by Kinomescan method relative to control.
In test [12] the target is Phosphatidylinositol 5-phosphate 4-kinase type-2 beta (Homo sapiens) (UniProt P78356). In words: Inhibition of wild-type human full length PIP5K2B (M1 to T416 residues) expressed in bacterial expression system at 1 uM by Kinomescan method relative to control.
In test [13] the target is cAMP-dependent protein kinase catalytic subunit PRKX (Homo sapiens) (UniProt P51817). In words: Inhibition of wild-type human partial length PRKX (M1 to F358 residues) expressed in bacterial expression system at 1 uM by Kinomescan method relative to control.
Test [14] has as its target Receptor-interacting serine/threonine-protein kinase 1 (Homo sapiens) (UniProt Q13546). Kind of test: Inhibition of wild-type human partial length RIPK1 (M1 to K305 residues) expressed in bacterial expression system at 1 uM by Kinomescan method relative to control.
Test [15] addresses Serine/threonine-protein kinase Chk2 (Homo sapiens) (UniProt O96017). In words: Inhibition of wild-type human partial length CHEK2 (S253 to E574 residues) expressed in bacterial expression system at 10 uM by Kinomescan method relative to control.
The subject of test [16] is Epidermal growth factor receptor (Homo sapiens), P00533 [L858R]. Kind of test: Inhibition of human partial length EGFR L858R mutant (R669 to V1011 residues) expressed in bacterial expression system at 10 uM by Kinomescan method relative to control.
Test [17] concerns the target Ephrin type-B receptor 1 (Homo sapiens) (UniProt P54762). Kind of test: Inhibition of wild-type human partial length EPHB1 (P589 to T911 residues) expressed in bacterial expression system at 10 uM by Kinomescan method relative to control.
Test [18] addresses Ephrin type-B receptor 3 (Homo sapiens) (UniProt P54753). Kind of test: Inhibition of wild-type human partial length EPHB3 (Q599 to T928 residues) expressed in bacterial expression system at 10 uM by Kinomescan method relative to control.
Test [19] has as its target Homeodomain-interacting protein kinase 4 (Homo sapiens) (UniProt Q8NE63). In words: Inhibition of wild-type human partial length HIPK4 (M1 to V384 residues) expressed in bacterial expression system at 10 uM by Kinomescan method relative to control.
Test [20] has as its target Serine/threonine-protein kinase MAK (Homo sapiens) (UniProt P20794). In words: Inhibition of wild-type human partial length MAK (M1 to P314 residues) expressed in bacterial expression system at 10 uM by Kinomescan method relative to control.
The test system of test [21] is Phosphatidylinositol 4,5-bisphosphate 3-kinase catalytic subunit alpha isoform (Homo sapiens), P42336 [M1043I]. Kind of test: Inhibition of human partial length PIK3CA M1043I mutant (R108 to N1068 residues) expressed in mammalian expression system at 10 uM by Kinomescan method relative to control.
Test [22] addresses Phosphatidylinositol 4,5-bisphosphate 3-kinase catalytic subunit beta isoform (Homo sapiens) (UniProt P42338). In words: Inhibition of wild-type human partial length PIK3CB (P118 to S1070 residues) expressed in mammalian expression system at 10 uM by Kinomescan method relative to control.
In test [23] the target is Phosphatidylinositol 5-phosphate 4-kinase type-2 beta (Homo sapiens) (UniProt P78356). In words: Inhibition of wild-type human full length PIP5K2B (M1 to T416 residues) expressed in bacterial expression system at 10 uM by Kinomescan method relative to control.
Test [24] has as its target Serine/threonine-protein kinase PLK4 (Homo sapiens) (UniProt O00444). Kind of test: Inhibition of wild-type human partial length PLK4 (M1 to S273 residues) expressed in mammalian expression system at 10 uM by Kinomescan method relative to control.
In test [25] the target is Serine/threonine-protein kinase Sgk3 (Homo sapiens) (UniProt Q96BR1). In words: Inhibition of wild-type human partial length SGK3 (M119 to L496 residues) expressed in mammalian expression system at 10 uM by Kinomescan method relative to control.
Test [26] deals with Tyrosine-protein kinase Yes (Homo sapiens) (UniProt P07947). Kind of test: Inhibition of wild-type human partial length YES (T257 to L543 residues) expressed in bacterial expression system at 10 uM by Kinomescan method relative to control.
In test [27] the target is Mitogen-activated protein kinase kinase kinase 19 (Homo sapiens) (UniProt Q56UN5). Kind of test: Inhibition of wild-type human partial length YSK4 (T1019 to H1328 residues) expressed in mammalian expression system at 10 uM by Kinomescan method relative to control.

Chain of Phosphatidylinositol 5-phosphate 4-kinase type-2 beta (Homo sapiens) (P78356 whole entry, the tested form may be a part): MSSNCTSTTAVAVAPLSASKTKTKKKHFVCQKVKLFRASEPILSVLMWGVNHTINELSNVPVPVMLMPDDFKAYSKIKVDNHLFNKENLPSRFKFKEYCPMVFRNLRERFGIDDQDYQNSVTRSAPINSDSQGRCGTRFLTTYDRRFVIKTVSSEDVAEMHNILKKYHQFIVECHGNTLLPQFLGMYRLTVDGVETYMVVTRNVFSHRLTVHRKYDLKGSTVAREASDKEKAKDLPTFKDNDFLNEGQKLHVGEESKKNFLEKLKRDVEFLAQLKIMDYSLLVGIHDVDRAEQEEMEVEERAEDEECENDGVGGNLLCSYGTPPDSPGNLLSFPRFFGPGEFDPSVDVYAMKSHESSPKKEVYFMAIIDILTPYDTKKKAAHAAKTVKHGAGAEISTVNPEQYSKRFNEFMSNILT
Chain of Serine/threonine-protein kinase Sgk3 (Homo sapiens) (Q96BR1 whole entry, the tested form may be a part): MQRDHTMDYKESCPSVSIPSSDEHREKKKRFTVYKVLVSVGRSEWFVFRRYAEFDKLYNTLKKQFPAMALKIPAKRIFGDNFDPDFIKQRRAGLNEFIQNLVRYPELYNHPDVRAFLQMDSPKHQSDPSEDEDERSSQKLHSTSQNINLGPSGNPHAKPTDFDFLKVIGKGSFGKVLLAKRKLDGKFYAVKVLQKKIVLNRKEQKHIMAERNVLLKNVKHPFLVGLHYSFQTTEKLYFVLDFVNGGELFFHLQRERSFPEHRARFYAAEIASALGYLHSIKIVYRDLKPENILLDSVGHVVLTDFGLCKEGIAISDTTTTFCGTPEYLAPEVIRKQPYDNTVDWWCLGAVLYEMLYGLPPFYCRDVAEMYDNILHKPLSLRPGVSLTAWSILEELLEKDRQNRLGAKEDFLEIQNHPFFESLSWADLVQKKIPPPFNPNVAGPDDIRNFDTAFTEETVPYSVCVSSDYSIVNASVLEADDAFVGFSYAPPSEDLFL
Chain of Activin receptor type-1B (Homo sapiens) (P36896 whole entry, the tested form may be a part): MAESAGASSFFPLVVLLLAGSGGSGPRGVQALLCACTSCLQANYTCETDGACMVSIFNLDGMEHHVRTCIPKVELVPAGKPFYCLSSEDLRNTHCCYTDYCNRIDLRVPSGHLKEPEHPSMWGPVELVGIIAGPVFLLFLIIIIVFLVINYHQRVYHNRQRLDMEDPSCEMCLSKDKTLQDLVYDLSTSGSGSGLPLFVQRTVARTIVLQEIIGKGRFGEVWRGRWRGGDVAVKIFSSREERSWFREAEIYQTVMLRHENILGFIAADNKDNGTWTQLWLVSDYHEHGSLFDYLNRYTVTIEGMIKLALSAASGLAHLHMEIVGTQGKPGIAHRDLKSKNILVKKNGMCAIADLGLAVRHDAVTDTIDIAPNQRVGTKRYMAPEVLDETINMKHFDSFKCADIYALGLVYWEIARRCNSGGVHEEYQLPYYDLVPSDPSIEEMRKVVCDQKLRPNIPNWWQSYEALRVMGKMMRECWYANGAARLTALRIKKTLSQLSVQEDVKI
Chain of Calcium/calmodulin-dependent protein kinase kinase 1 (Homo sapiens) (Q8N5S9 whole entry, looked up, the tested form may be a part): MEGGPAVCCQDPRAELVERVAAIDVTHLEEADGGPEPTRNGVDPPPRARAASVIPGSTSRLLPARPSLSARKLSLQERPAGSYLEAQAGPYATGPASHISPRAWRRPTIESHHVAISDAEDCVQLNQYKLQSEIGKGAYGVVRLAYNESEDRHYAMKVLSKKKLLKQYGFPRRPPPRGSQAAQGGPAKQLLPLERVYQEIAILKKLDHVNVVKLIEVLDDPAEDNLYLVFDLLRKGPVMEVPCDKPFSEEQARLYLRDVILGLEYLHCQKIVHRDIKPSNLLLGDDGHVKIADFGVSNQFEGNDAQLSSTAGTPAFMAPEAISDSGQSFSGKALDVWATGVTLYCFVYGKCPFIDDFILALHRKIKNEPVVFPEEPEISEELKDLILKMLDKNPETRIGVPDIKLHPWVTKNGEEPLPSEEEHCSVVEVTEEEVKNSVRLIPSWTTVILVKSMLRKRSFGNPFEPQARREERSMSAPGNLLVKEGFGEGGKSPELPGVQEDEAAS
Chain of Mitogen-activated protein kinase kinase kinase 3 (Homo sapiens) (Q99759 whole entry, the tested form may be a part): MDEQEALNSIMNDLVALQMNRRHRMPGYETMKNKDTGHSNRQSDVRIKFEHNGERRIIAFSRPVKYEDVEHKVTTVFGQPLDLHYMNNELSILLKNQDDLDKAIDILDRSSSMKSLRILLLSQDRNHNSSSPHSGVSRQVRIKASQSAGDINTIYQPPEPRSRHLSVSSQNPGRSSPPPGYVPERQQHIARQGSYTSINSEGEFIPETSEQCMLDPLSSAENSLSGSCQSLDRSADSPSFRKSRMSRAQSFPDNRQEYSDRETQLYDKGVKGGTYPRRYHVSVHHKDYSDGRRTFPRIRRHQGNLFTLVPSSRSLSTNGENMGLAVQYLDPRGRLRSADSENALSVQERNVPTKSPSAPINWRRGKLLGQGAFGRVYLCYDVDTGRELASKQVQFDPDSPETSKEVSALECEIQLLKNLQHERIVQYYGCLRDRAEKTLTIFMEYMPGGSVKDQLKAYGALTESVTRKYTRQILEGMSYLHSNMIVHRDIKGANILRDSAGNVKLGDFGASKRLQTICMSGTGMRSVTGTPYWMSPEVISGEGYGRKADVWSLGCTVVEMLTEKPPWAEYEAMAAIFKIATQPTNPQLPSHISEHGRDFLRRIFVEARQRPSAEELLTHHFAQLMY
Chain of Phosphatidylinositol 4,5-bisphosphate 3-kinase catalytic subunit alpha isoform (Homo sapiens), P42336 [M1043I] (P42336 whole entry M1043I, the tested form may be a part, canonical isoform): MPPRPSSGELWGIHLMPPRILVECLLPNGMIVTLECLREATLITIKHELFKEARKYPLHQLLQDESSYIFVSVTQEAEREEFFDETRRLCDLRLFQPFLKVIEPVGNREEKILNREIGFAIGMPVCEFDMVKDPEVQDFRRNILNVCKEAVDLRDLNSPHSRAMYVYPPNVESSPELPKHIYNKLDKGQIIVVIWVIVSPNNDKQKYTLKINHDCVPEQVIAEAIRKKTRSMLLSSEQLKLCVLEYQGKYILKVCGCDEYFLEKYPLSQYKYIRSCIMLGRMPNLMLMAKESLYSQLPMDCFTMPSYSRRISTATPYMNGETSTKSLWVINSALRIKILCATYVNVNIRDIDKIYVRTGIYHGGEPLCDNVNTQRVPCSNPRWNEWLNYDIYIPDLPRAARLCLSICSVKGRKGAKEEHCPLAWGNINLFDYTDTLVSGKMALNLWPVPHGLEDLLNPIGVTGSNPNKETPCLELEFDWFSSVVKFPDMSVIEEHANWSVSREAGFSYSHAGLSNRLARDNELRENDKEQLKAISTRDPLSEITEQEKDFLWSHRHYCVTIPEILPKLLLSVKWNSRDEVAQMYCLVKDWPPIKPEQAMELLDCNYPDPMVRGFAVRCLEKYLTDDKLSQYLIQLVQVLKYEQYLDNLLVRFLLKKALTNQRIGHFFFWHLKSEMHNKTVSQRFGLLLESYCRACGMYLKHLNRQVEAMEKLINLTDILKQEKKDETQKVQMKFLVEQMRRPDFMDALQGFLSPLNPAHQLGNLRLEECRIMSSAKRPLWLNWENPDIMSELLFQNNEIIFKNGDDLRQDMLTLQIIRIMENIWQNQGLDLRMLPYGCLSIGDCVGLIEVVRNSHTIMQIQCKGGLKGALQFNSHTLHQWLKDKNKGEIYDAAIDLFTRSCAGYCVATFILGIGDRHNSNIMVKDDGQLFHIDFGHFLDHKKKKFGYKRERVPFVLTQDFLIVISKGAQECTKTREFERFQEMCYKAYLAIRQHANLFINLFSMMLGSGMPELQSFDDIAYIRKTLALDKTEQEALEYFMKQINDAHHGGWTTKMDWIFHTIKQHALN
Chain of Cyclin-dependent kinase-like 3 (Homo sapiens) (Q8IVW4 whole entry, looked up, the tested form may be a part): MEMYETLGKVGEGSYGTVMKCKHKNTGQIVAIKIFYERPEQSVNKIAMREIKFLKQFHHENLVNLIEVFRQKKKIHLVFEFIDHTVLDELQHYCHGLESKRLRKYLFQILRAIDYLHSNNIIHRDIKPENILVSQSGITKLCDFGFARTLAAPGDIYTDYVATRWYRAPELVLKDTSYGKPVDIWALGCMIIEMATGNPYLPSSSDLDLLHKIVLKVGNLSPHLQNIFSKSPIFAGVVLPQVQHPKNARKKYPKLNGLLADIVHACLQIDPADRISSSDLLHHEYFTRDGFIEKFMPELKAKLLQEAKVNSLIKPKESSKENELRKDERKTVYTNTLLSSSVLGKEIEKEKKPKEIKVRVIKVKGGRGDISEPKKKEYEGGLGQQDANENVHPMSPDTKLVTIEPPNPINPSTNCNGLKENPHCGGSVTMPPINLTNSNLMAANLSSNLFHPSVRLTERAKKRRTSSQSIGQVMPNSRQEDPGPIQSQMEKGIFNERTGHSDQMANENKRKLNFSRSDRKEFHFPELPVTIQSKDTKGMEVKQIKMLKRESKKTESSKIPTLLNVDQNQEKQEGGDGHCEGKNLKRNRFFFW
Chain of Serine/threonine-protein kinase Chk2 (Homo sapiens) (O96017 whole entry, the tested form may be a part): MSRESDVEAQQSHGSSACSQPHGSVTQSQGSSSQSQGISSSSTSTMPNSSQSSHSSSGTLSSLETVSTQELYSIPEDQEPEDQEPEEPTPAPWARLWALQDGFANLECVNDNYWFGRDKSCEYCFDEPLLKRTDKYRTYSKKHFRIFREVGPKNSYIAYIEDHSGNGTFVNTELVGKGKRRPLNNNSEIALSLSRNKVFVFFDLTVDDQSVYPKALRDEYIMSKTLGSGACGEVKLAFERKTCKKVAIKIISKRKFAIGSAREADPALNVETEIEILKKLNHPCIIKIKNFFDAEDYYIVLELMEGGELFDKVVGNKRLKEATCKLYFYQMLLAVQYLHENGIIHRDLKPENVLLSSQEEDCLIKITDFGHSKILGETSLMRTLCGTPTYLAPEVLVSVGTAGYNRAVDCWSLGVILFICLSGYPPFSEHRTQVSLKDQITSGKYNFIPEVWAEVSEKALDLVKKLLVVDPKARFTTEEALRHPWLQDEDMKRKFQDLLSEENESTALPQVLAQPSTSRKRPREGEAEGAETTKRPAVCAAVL

Broadly, the inhibition is the drop in the measured response relative to a control, in per cent. Turning to `O=C(Nc1cccc([C@@H]2CN(c3ncnc4[nH]ccc34)CCN2CCO)c1)Nc1c(F)cccc1N1CCCC1`, the inhibition in test [1] worked out at 100%; in test [2], 100%; in test [3] it was 83%; in [4], 23%; in [5], 72%; in test [6], 100%. Besides, the inhibition was found to be 100% in test [7]; 78% in [8]; 17% in test [9]; 40% in [10]; 42% in [11]; 96% in test [12]. Moreover, the inhibition in [13] amounted to 95%; in test [14], 100%.
On to `O=C(Nc1cccc([C@H]2CCCN(c3ncnc4[nH]ccc34)C2)c1)Nc1ccccc1N1CCCC1`, for which the inhibition in test [15] amounted to 47%; in test [16], 76%; in test [17], 100%; in test [18], 100%; in test [19] it was 100%; in [20] it was 100%. Further, the inhibition came to 93% in test [21]; 94% in test [22]; 4.7% in [23]; 4.9% in test [24]; 40% in test [25]; 62% in [26]. The compound further returned an inhibition in test [27] of 2.3%.
